According to patent publication US11358957B2, “Microbiocidal oxadiazole derivatives” (SYNGENTA PARTICIPATIONS AG, priority 2017, dated 2022):

Assays:
[1] = system: Puccinia recondita f. Sp. Tritici; test: Fungicidal activity against Puccinia recondita f. sp. tritici / wheat / leaf disc preventative (brown rust); type: in vivo; settings: foliar, 200 ppm in the applied formulation, wheat leaf segments cv. Kanzler, preventative (inoculated 1 day after application), compared to untreated, read-out: disease control
Description: Leaf disks or leaf segments of various plant species are cut from plants grown in a greenhouse. The cut leaf disks or segments are placed in multiwell plates (24-well format) onto water agar. The leaf disks are sprayed with a test solution before (preventative) or after (curative) inoculation. Compounds to be tested are prepared as DMSO solutions (max. 10 mg/mL) which are diluted to the appropriate concentration with 0.025% Tween20 just before spraying. The inoculated leaf disks or segments are incubated under defined conditions (temperature, relative humidity, light, etc.) according to the respective test system. A single evaluation of disease level is carried out 3 to 14 days after inoculation, depending on the pathosystem. Percent disease control relative to the untreated check leaf disks or segments is then calculated. Wheat leaf segments cv. Kanzler were placed on agar in multiwell plates (24-well format) and sprayed with the formulated test compound diluted in water. The leaf disks were inoculated with a spore suspension of the fungus 1 day after application. The inoculated leaf segments were incubated at 19° C. and 75% relative humidity (rh) under a light regime of 12 hours light/12 hours darkness in a climate cabinet and the activity of a compound was assessed as percent disease control compared to untreated when an appropriate level of disease damage appears in untreated check leaf segments (7 to 9 days after application). The following compounds at 200 ppm in the applied formulation give at least 80% disease control in this test when compared to untreated control leaf disks under the same conditions, which show extensive disease development.

[2] = system: Puccinia recondita f. Sp. Tritici; test: Fungicidal activity against Puccinia recondita f. sp. tritici / wheat / leaf disc curative (brown rust); type: in vivo; settings: foliar, 24 h, 200 ppm in the applied formulation, wheat leaf segments cv. Kanzler, curative (applied 1 day after inoculation), compared to untreated, read-out: disease control
Description: Leaf disks or leaf segments of various plant species are cut from plants grown in a greenhouse. The cut leaf disks or segments are placed in multiwell plates (24-well format) onto water agar. The leaf disks are sprayed with a test solution before (preventative) or after (curative) inoculation. Compounds to be tested are prepared as DMSO solutions (max. 10 mg/mL) which are diluted to the appropriate concentration with 0.025% Tween20 just before spraying. The inoculated leaf disks or segments are incubated under defined conditions (temperature, relative humidity, light, etc.) according to the respective test system. A single evaluation of disease level is carried out 3 to 14 days after inoculation, depending on the pathosystem. Percent disease control relative to the untreated check leaf disks or segments is then calculated. Wheat leaf segments cv. Kanzler are placed on agar in multiwell plates (24-well format). The leaf segments are then inoculated with a spore suspension of the fungus. Plates were stored in darkness at 19C and 75% relative humidity. The formulated test compound diluted in water was applied 1 day after inoculation. The leaf segments were incubated at 19° C. and 75% relative humidity under a light regime of 12 hours light/12 hours darkness in a climate cabinet and the activity of a compound was assessed as percent disease control compared to untreated when an appropriate level of disease damage appears in untreated check leaf segments (6 to 8 days after application). The following compounds at 200 ppm in the applied formulation give at least 80% disease control in this test when compared to untreated control leaf disks under the same conditions, which show extensive disease development.

[3] = system: Glomerella lagenarium (Colletotrichum lagenarium); test: Fungicidal activity against Glomerella lagenarium (Colletotrichum lagenarium) liquid culture / cucumber / preventative (anthracnose); type: cell-based; settings: Colletotrichum orbiculare; 20 ppm in the applied formulation; liquid culture (PDB), inhibition of growth measured photometrically 3 to 4 days after application; compared to untreated; read-out: disease control
Description: Mycelia fragments or conidia suspensions of a fungus prepared either freshly from liquid cultures of the fungus or from cryogenic storage, are directly mixed into nutrient broth. DMSO solutions of the test compound (max. 10 mg/mL) are diluted with 0.025% Tween20 by a factor of 50 and 10 μL of this solution is pipetted into a microtiter plate (96-well format). The nutrient broth containing the fungal spores/mycelia fragments is then added to give an end concentration of the tested compound. The test plates are incubated in the dark at 24° C. and 96% relative humidity. The inhibition of fungal growth is determined photometrically after 2 to 7 days, depending on the pathosystem, and percent antifungal activity relative to the untreated check is calculated. Conidia of the fungus from cryogenic storage are directly mixed into nutrient broth (PDB—potato dextrose broth). After placing a (DMSO) solution of test compound into a microtiter plate (96-well format), the nutrient broth containing the fungal spores is added. The test plates are incubated at 24° C. and the inhibition of growth is measured photometrically 3 to 4 days after application. The following compounds at 20 ppm in the applied formulation give at least 80% disease control in this test when compared to untreated control under the same conditions, which show extensive disease development.

C=CCNC(=O)c1cnn(C(C)c2ccc(-c3noc(C(F)(F)F)n3)s2)c1 (stereo not drawn) [Compound 1.73, N-allyl-1-[1-[5-[5-(trifluoromethyl)-1,2,4-oxadiazol-3-yl]-2-thienyl]ethyl]pyrazole-4-carboxamide]
≥ 80%: pest or weed control at 200 ppm [1] | pest or weed control at 200 ppm [2] | inhibition of growth at 20 ppm [3]

CC(c1ccc(-c2noc(C(F)(F)F)n2)s1)n1cc(C(=O)NC2CCC2)cn1 (stereo not drawn) [Compound 1.79, N-cyclobutyl-1-[1-[5-[5-(trifluoromethyl)-1,2,4-oxadiazol-3-yl]-2-thienyl]ethyl]pyrazole-4-carboxamide]
≥ 80%: pest or weed control at 200 ppm [1] | pest or weed control at 200 ppm [2] | inhibition of growth at 20 ppm [3]

CONC(=O)c1cnn(C(C)c2ccc(-c3noc(C(F)(F)F)n3)s2)c1 (stereo not drawn) [Compound 1.82, N-methoxy-1-[1-[5-[5-(trifluoromethyl)-1,2,4-oxadiazol-3-yl]-2-thienyl]ethyl]pyrazole-4-carboxamide]
≥ 80%: pest or weed control at 200 ppm [1] | pest or weed control at 200 ppm [2] | inhibition of growth at 20 ppm [3]

CC(c1ccc(-c2noc(C(F)(F)F)n2)s1)n1cc(C(=O)NCc2ccco2)cn1 (stereo not drawn) [Compound 1.85, N-(2-furylmethyl)-1-[1-[5-[5-(trifluoromethyl)-1,2,4-oxadiazol-3-yl]-2-thienyl]ethyl]pyrazole-4-carboxamide]
≥ 80%: pest or weed control at 200 ppm [1] | pest or weed control at 200 ppm [2] | inhibition of growth at 20 ppm [3]

CCN(C)C(=O)c1cnn(C(C)c2ccc(-c3noc(C(F)(F)F)n3)s2)c1 (stereo not drawn) [Compound 1.88, N-ethyl-N-methyl-1-[1-[5-[5-(trifluoromethyl)-1,2,4-oxadiazol-3-yl]-2-thienyl]ethyl]pyrazole-4-carboxamide]
≥ 80%: pest or weed control at 200 ppm [1] | pest or weed control at 200 ppm [2] | inhibition of growth at 20 ppm [3]

O=C(NC1CCC1)c1ncn(Cc2ccc(-c3noc(C(F)(F)F)n3)s2)n1 [Compound 1.91, N-cyclobutyl-1-[[5-[5-(trifluoromethyl)-1,2,4-oxadiazol-3-yl]-2-thienyl]methyl]-1,2,4-triazole-3-carboxamide]
≥ 80%: pest or weed control at 200 ppm [1] | pest or weed control at 200 ppm [2] | inhibition of growth at 20 ppm [3]

O=C(NC1CCCC1)c1ncn(Cc2ccc(-c3noc(C(F)(F)F)n3)s2)n1 [Compound 1.94, N-cyclopentyl-1-[[5-[5-(trifluoromethyl)-1,2,4-oxadiazol-3-yl]-2-thienyl]methyl]-1,2,4-triazole-3-carboxamide]
≥ 80%: pest or weed control at 200 ppm [1] | pest or weed control at 200 ppm [2] | inhibition of growth at 20 ppm [3]

O=C(NCc1ccco1)c1ncn(Cc2ccc(-c3noc(C(F)(F)F)n3)s2)n1 [Compound 1.96, N-(2-furylmethyl)-1-[[5-[5-(trifluoromethyl)-1,2,4-oxadiazol-3-yl]-2-thienyl]methyl]-1,2,4-triazole-3-carboxamide]
≥ 80%: pest or weed control at 200 ppm [1] | pest or weed control at 200 ppm [2] | inhibition of growth at 20 ppm [3]

C#CCNC(=O)c1ncn(Cc2ccc(-c3noc(C(F)(F)F)n3)s2)n1 [Compound 1.98, N-prop-2-ynyl-1-[[5-[5-(trifluoromethyl)-1,2,4-oxadiazol-3-yl]-2-thienyl]methyl]-1,2,4-triazole-3-carboxamide]
≥ 80%: pest or weed control at 200 ppm [1] | pest or weed control at 200 ppm [2] | inhibition of growth at 20 ppm [3]

CC(C)(C)CNC(=O)c1cnn(Cc2ccc(-c3noc(C(F)(F)F)n3)s2)c1 [Compound 1.101, N-(2,2-dimethylpropyl)-1-[[5-[5-(trifluoromethyl)-1,2,4-oxadiazol-3-yl]-2-thienyl]methyl]pyrazole-4-carboxamide]
≥ 80%: pest or weed control at 200 ppm [1] | pest or weed control at 200 ppm [2] | inhibition of growth at 20 ppm [3]

CC(C)NC(=O)c1cnn(Cc2ccc(-c3noc(C(F)(F)F)n3)s2)c1 [Compound 1.102, N-isopropyl-1-[[5-[5-(trifluoromethyl)-1,2,4-oxadiazol-3-yl]-2-thienyl]methyl]pyrazole-4-carboxamide]
≥ 80%: pest or weed control at 200 ppm [1] | pest or weed control at 200 ppm [2] | inhibition of growth at 20 ppm [3]

CON(C)C(=O)c1cnn(Cc2ccc(-c3noc(C(F)(F)F)n3)s2)c1 [Compound 1.103, N-methoxy-N-methyl-1-[[5-[5-(trifluoromethyl)-1,2,4-oxadiazol-3-yl]-2-thienyl]methyl]pyrazole-4-carboxamide]
≥ 80%: pest or weed control at 200 ppm [1] | pest or weed control at 200 ppm [2] | inhibition of growth at 20 ppm [3]

O=C(NC1CCCCC1)c1cnn(Cc2ccc(-c3noc(C(F)(F)F)n3)s2)c1 [Compound 1.105, N-cyclohexyl-1-[[5-[5-(trifluoromethyl)-1,2,4-oxadiazol-3-yl]-2-thienyl]methyl]pyrazole-4-carboxamide]
≥ 80%: pest or weed control at 200 ppm [1] | pest or weed control at 200 ppm [2] | inhibition of growth at 20 ppm [3]

CCNC(=O)c1cnn(Cc2ccc(-c3noc(C(F)(F)F)n3)s2)c1 [Compound 1.106, N-ethyl-1-[[5-[5-(trifluoromethyl)-1,2,4-oxadiazol-3-yl]-2-thienyl]methyl]pyrazole-4-carboxamide]
≥ 80%: pest or weed control at 200 ppm [1] | pest or weed control at 200 ppm [2] | inhibition of growth at 20 ppm [3]

CC(C)CNC(=O)c1cnn(Cc2ccc(-c3noc(C(F)(F)F)n3)s2)c1 [Compound 1.109, N-isobutyl-1-[[5-[5-(trifluoromethyl)-1,2,4-oxadiazol-3-yl]-2-thienyl]methyl]pyrazole-4-carboxamide]
≥ 80%: pest or weed control at 200 ppm [1] | pest or weed control at 200 ppm [2] | inhibition of growth at 20 ppm [3]

CCNC(=O)c1ccn(Cc2ccc(-c3noc(C(F)(F)F)n3)s2)n1 [Compound 1.120, N-ethyl-1-[[5-[5-(trifluoromethyl)-1,2,4-oxadiazol-3-yl]-2-thienyl]methyl]pyrazole-3-carboxamide]
≥ 80%: pest or weed control at 200 ppm [1] | pest or weed control at 200 ppm [2] | inhibition of growth at 20 ppm [3]

C=CCNC(=O)c1ccn(Cc2ccc(-c3noc(C(F)(F)F)n3)s2)n1 [Compound 1.122, N-allyl-1-[[5-[5-(trifluoromethyl)-1,2,4-oxadiazol-3-yl]-2-thienyl]methyl]pyrazole-3-carboxamide]
≥ 80%: pest or weed control at 200 ppm [1] | pest or weed control at 200 ppm [2] | inhibition of growth at 20 ppm [3]

O=C(NC1CC1)c1ccn(Cc2ccc(-c3noc(C(F)(F)F)n3)s2)n1 [Compound 1.126, N-cyclopropyl-1-[[5-[5-(trifluoromethyl)-1,2,4-oxadiazol-3-yl]-2-thienyl]methyl]pyrazole-3-carboxamide]
≥ 80%: pest or weed control at 200 ppm [1] | pest or weed control at 200 ppm [2] | inhibition of growth at 20 ppm [3]

CCN(CC)C(=O)c1ccn(Cc2ccc(-c3noc(C(F)(F)F)n3)s2)n1 [Compound 1.128, N,N-diethyl-1-[[5-[5-(trifluoromethyl)-1,2,4-oxadiazol-3-yl]-2-thienyl]methyl]pyrazole-3-carboxamide]
≥ 80%: pest or weed control at 200 ppm [1] | pest or weed control at 200 ppm [2] | inhibition of growth at 20 ppm [3]
